From PubChem BioAssay AID328 (DTP/NCI, 2004)
Values joined by “and” are separate entries in the source; they are usually repeats but may differ in a detail not shown here. Equal values may be shown once. Inconclusive results and toxic doses are left out.

System: BDF1 mice, P388 leukemia ip, median survival T/C
Experiment: NCI In Vivo Anticancer Drug Screen. Data for tumor model P388 Leukemia (intraperitoneal) in B6D2F1 (BDF1) mice
Details: endpoint: median survival time, higher = longer survival
Method in brief: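 Survival ratio, drug arm over vehicle arm, in mice with a transplanted tumour.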

[1] = dose: 100.0 mg/kg/injection, schedule: Q04DX003 (ip), vehicle: saline
[2] = dose: 200.0 mg/kg/injection, schedule: Q04DX003 (ip), vehicle: saline
[3] = dose: 400.0 mg/kg/injection, schedule: Q04DX003 (ip), vehicle: saline
[4] = dose: 100.0 mg/kg/injection, schedule: Q01DX009 (ip), vehicle: saline with Tween-80
[5] = dose: 100.0 mg/kg/injection, schedule: Q04DX003 (ip), vehicle: saline with Tween-80
[6] = dose: 200.0 mg/kg/injection, schedule: Q01DX009 (ip), vehicle: saline with Tween-80
[7] = dose: 200.0 mg/kg/injection, schedule: Q04DX003 (ip), vehicle: saline with Tween-80
[8] = dose: 400.0 mg/kg/injection, schedule: Q04DX003 (ip), vehicle: saline with Tween-80
[9] = dose: 12.5 mg/kg/injection, schedule: Q01DX009 (ip), vehicle: saline with Tween-80
[10] = dose: 25.0 mg/kg/injection, schedule: Q01DX009 (ip), vehicle: saline with Tween-80
[11] = dose: 50.0 mg/kg/injection, schedule: Q01DX009 (ip), vehicle: saline with Tween-80

CCOC(=O)C(C)(C)CSC(C)(C)C(=O)OCC
T/C [1]: 90 % of control | T/C [2]: 90 % of control | T/C [3]: 95 % of control

OCCOCCN1CCN(CCCN2c3ccccc3Sc3ccc(C(F)(F)F)cc32)CC1
T/C (dose: 1.56 mg/kg/injection, schedule: Q01DX009 (ip), vehicle: saline): 109 % of control | T/C (dose: 12.5 mg/kg/injection, schedule: Q04DX003 (ip), vehicle: saline): 113 % of control and 120 % of control | T/C (dose: 50.0 mg/kg/injection, schedule: Q04DX003 (ip), vehicle: saline): 117 % of control

CCC1=CCN2CCC34c5cc(C6(C(=O)OC)CC7CC(CC)CN(CCc8c6[nH]c6ccccc86)C7)c(OC)cc5N(C)C3C(O)(C(=O)OC)C(OC(C)=O)C1C24 (stereo unspecified)
T/C (dose: 0.03 mg/kg/injection, schedule: Q01DX010 (ip), vehicle: saline): 100 % of control | T/C (dose: 0.06 mg/kg/injection, schedule: Q01DX010 (ip), vehicle: saline): 104 % of control | T/C (dose: 0.13 mg/kg/injection, schedule: Q01DX010 (ip), vehicle: saline): 95 % of control | T/C (dose: 0.25 mg/kg/injection, schedule: Q01DX010 (ip), vehicle: saline): 100 % of control | T/C (dose: 0.5 mg/kg/injection, schedule: Q01DX010 (ip), vehicle: saline): 86 % of control

Nc1c(Cl)cc(S(N)(=O)=O)cc1Cl
T/C [4]: 86 % of control | T/C [5]: 104 % of control | T/C [6]: 90 % of control | T/C [7]: 104 % of control | T/C [8]: 100 % of control

O=C(Nc1ccccc1O)/C(Cl)=C/Cl
T/C (dose: 22.0 mg/kg/injection, schedule: Q01DX009 (ip), vehicle: saline with Tween-80): 122 % of control | T/C (dose: 33.0 mg/kg/injection, schedule: Q01DX009 (ip), vehicle: saline with Tween-80): 123 % of control

CN1CC=Nc2c1nc(N)[nH]c2=O
T/C [9]: 109 % of control | T/C [10]: 107 % of control | T/C [11]: 102 % of control

Clc1ccc(C[P+](c2ccccc2)(c2ccccc2)c2ccccc2)c(Cl)c1
T/C (dose: 1.4 mg/kg/injection, schedule: Q01DX009 (ip), vehicle: saline): 120 % of control | T/C (dose: 7.5 mg/kg/injection, schedule: Q01DX009 (ip), vehicle: saline): 115 % of control

Cc1ccc(/C(C#N)=C2C=C(Br)/C(=N\O)C=C/2Cl)cc1
T/C (dose: 28.12 mg/kg/injection, schedule: Q04DX003 (ip), vehicle: Klucel (hydroxypropylcellulose) (HPC)): 100 % of control | T/C (dose: 56.25 mg/kg/injection, schedule: Q01DX009 (ip), vehicle: Klucel (hydroxypropylcellulose) (HPC)): 115 % of control | T/C (dose: 56.25 mg/kg/injection, schedule: Q04DX003 (ip), vehicle: Klucel (hydroxypropylcellulose) (HPC)): 100 % of control | T/C (dose: 100.0 mg/kg/injection, schedule: Q01DX001 (ip), vehicle: Klucel (hydroxypropylcellulose) (HPC)): 90 % of control | T/C (dose: 112.5 mg/kg/injection, schedule: Q01DX009 (ip), vehicle: Klucel (hydroxypropylcellulose) (HPC)): 110 % of control | T/C (dose: 112.5 mg/kg/injection, schedule: Q04DX003 (ip), vehicle: Klucel (hydroxypropylcellulose) (HPC)): 100 % of control | T/C (dose: 150.0 mg/kg/injection, schedule: Q01DX009 (ip), vehicle: Klucel (hydroxypropylcellulose) (HPC)): 100 % of control | T/C (dose: 170.0 mg/kg/injection, schedule: Q04DX003 (ip), vehicle: Klucel (hydroxypropylcellulose) (HPC)): 105 % of control | T/C (dose: 200.0 mg/kg/injection, schedule: Q01DX001 (ip), vehicle: Klucel (hydroxypropylcellulose) (HPC)): 104 % of control | T/C (dose: 225.0 mg/kg/injection, schedule: Q01DX009 (ip), vehicle: Klucel (hydroxypropylcellulose) (HPC)): 105 % of control | T/C (dose: 255.0 mg/kg/injection, schedule: Q04DX003 (ip), vehicle: Klucel (hydroxypropylcellulose) (HPC)): 110 % of control | T/C (dose: 335.0 mg/kg/injection, schedule: Q01DX009 (ip), vehicle: Klucel (hydroxypropylcellulose) (HPC)): 100 % of control | T/C (dose: 380.0 mg/kg/injection, schedule: Q04DX003 (ip), vehicle: Klucel (hydroxypropylcellulose) (HPC)): 100 % of control

COc1ccc(C(=O)CCCCl)c(OC)c1
T/C [5]: 100 % of control | T/C [7]: 100 % of control | T/C [8]: 90 % of control

NC(=O)C(O)C(Br)(Br)Br (stereo unspecified)
T/C (dose: 100.0 mg/kg/injection, schedule: Q01DX009 (ip), vehicle: saline): 116 % of control | T/C [1]: 95 % of control | T/C (dose: 200.0 mg/kg/injection, schedule: Q01DX009 (ip), vehicle: saline): 108 % of control | T/C [2]: 104 % of control | T/C [3]: 100 % of control

CC(C)[C@]12O[C@H]1[C@@H]1O[C@]13[C@]1(O[C@H]1C[C@H]1C4=C(CC[C@@]13C)C(=O)OC4)[C@@H]2O
T/C (dose: 26.0 micrograms/kg/injection, schedule: Q01DX009 (ip), vehicle: saline): 118 % of control | T/C (dose: 40.0 micrograms/kg/injection, schedule: Q01DX009 (ip), vehicle: saline): 118 % of control | T/C (dose: 60.0 micrograms/kg/injection, schedule: Q01DX009 (ip), vehicle: saline): 100 % of control | T/C (dose: 89.0 micrograms/kg/injection, schedule: Q01DX009 (ip), vehicle: saline): 109 % of control | T/C (dose: 133.0 micrograms/kg/injection, schedule: Q01DX009 (ip), vehicle: saline): 100 % of control

CCOc1ccc(N2CC(=O)N3CCCC(c4ccccc4)N3C(=O)C2)cc1 (stereo unspecified)
T/C (dose: 50.0 mg/kg/injection, schedule: Q01DX005 (ip), vehicle: saline with Tween-80): 108 % of control | T/C (dose: 100.0 mg/kg/injection, schedule: Q01DX005 (ip), vehicle: saline with Tween-80): 94 % of control | T/C (dose: 200.0 mg/kg/injection, schedule: Q01DX005 (ip), vehicle: saline with Tween-80): 94 % of control

CCOC(=O)C1=C(C)NC(C)=C(C(=O)OCC)C1c1cc(OC)c(OC)c(OC)c1
T/C (dose: 25.0 mg/kg/injection, schedule: Q01DX009 (ip), vehicle: other): 100 % of control | T/C (dose: 50.0 mg/kg/injection, schedule: Q01DX009 (ip), vehicle: other): 95 % of control | T/C (dose: 100.0 mg/kg/injection, schedule: Q01DX009 (ip), vehicle: other): 96 % of control | T/C (dose: 200.0 mg/kg/injection, schedule: Q01DX009 (ip), vehicle: other): 95 % of control | T/C (dose: 400.0 mg/kg/injection, schedule: Q01DX009 (ip), vehicle: other): 87 % of control

O=CN(O)CC(=O)O.[Zn]
T/C (dose: 4.12 mg/kg/injection, schedule: Q01DX009 (ip), vehicle: saline): 118 % of control and 122 % of control | T/C (dose: 6.25 mg/kg/injection, schedule: Q01DX009 (ip), vehicle: saline): 118 % of control and 122 % of control | T/C (dose: 8.7 mg/kg/injection, schedule: Q04DX003 (ip), vehicle: saline): 104 % of control | T/C (dose: 9.37 mg/kg/injection, schedule: Q01DX009 (ip), vehicle: saline): 118 % of control | T/C (dose: 13.0 mg/kg/injection, schedule: Q04DX003 (ip), vehicle: saline): 113 % of control | T/C (dose: 19.5 mg/kg/injection, schedule: Q04DX003 (ip), vehicle: saline): 113 % of control | T/C (dose: 30.0 mg/kg/injection, schedule: Q04DX003 (ip), vehicle: saline): 118 % of control

CC(NC(=O)C(N)CSC(c1ccccc1)(c1ccccc1)c1ccccc1)C(=O)O (stereo unspecified)
T/C (dose: 88.0 mg/kg/injection, schedule: Q04DX003 (ip), vehicle: saline with Tween-80): 113 % of control | T/C (dose: 88.0 mg/kg/injection, schedule: Q04DX003 (ip), vehicle: saline): 122 % of control | T/C [7]: 195 % of control

CCOC(=O)C(C)(C(=O)OCC)c1ccccc1
T/C [4]: 104 % of control | T/C [5]: 115 % of control | T/C [6]: 113 % of control | T/C [7]: 110 % of control | T/C (dose: 400.0 mg/kg/injection, schedule: Q01DX009 (ip), vehicle: saline with Tween-80): 118 % of control | T/C [8]: 115 % of control

CC(=O)OC1C(C=C(C)C)OC2CC3(C)C4=C(CCC3(C)C2C1C)C1(C)CCC(O)C(C)(C)C1CC4 (stereo unspecified)
T/C (dose: 50.0 mg/kg/injection, schedule: Q01DX010 (sc), vehicle: steriod suspending solution): 90 % of control | T/C (dose: 100.0 mg/kg/injection, schedule: Q01DX010 (sc), vehicle: steriod suspending solution): 90 % of control | T/C (dose: 200.0 mg/kg/injection, schedule: Q01DX010 (sc), vehicle: steriod suspending solution): 90 % of control | T/C (dose: 400.0 mg/kg/injection, schedule: Q01DX010 (sc), vehicle: steriod suspending solution): 86 % of control

COc1cc(Cc2cc(OC)c(O)c(OC)c2)cc(OC)c1O
T/C (dose: 100.0 mg/kg/injection, schedule: Q04DX003 (ip), vehicle: Klucel (hydroxypropylcellulose) (HPC)): 95 % of control | T/C (dose: 200.0 mg/kg/injection, schedule: Q04DX003 (ip), vehicle: Klucel (hydroxypropylcellulose) (HPC)): 100 % of control | T/C (dose: 400.0 mg/kg/injection, schedule: Q04DX003 (ip), vehicle: Klucel (hydroxypropylcellulose) (HPC)): 100 % of control

O=C1c2ccccc2C(=O)c2c(Cl)cccc21
T/C [9]: 113 % of control | T/C [10]: 100 % of control | T/C [11]: 100 % of control | T/C [5]: 95 % of control | T/C [7]: 100 % of control | T/C [8]: 95 % of control
